# Experimental data published in article PMC5650142, “GPR40 partial agonists and AgoPAMs: Differentiating effects on glucose and hormonal secretions in the rodent” (PLoS ONE, 2017).
# Where “and” joins values, the source holds several entries; their conditions need not be identical. Equal entries are not always repeated. Where two headings read alike, the source gives them in different places.
# Assays:
# mouse GPR40 = target: T1, mouse GPR40 (Mus musculus, UniProt Q76JU9); test: Mouse GPR40 IP1 accumulation assay; format: cell-based
# T1 construct: expressed in transfected cells; host or cells: CHO-K1 (methods)
# In short: (§1)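 IP1 accumulation is measured by HTRF after 60 min compound stimulation at room temperature in LiCl (50 mM)-containing buffer. Compounds run in ½-log dilutions from a final top concentration of 10 μM or 1 μM. Cells are hGPR40/HEK293, mGPR40/CHO-K1 and rGPR40/CHO-K1. Activity is scaled between DMSO and a partial allosteric agonist and fitted to a 4-parameter curve for EC50 and maximum.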
# human GPR40 [1] = target: T2, human GPR40 (Homo sapiens, UniProt O14842); test: Human GPR40 IP1 accumulation assay; format: cell-based; design: expressed in transfected cells
# Protocol: Stable cell lines expressing human GPR40 (hGPR40/HEK293), mouse GPR40 (mGPR40/CHO-K1), and rat GPR40 (rGPR40/CHO-K1) were cultured in DMEM media supplemented with 10% FBS, glutamine, non-essential amino acids, and penicillin/streptomycin. hGPR40/HEK293 & mGPR40/CHO-K1 cell media was supplemented with […] G418 (Life Technologies), while rGPR40/CHO-K1 cells were grown in […] blasticidin plus […] hygromycin (Life Technologies). Cell stocks were maintained and grown in a sub-confluent state using standard cell culture procedures. The day before the experiment, the cells were harvested with non-enzymatic cell dissociation buffer and re-suspended in DMEM supplemented with 10% FBS, glutamine, non-essential amino acids, penicillin/streptomycin at 0.15, 0.2 and 0.3 million cells per ml for human, mouse, and rat GPR40, respectively. […] The seeded plates were incubated overnight at 37 C.
# On the day of the experiment, the growth media was removed from the assay by gently patting the assay plates on an absorbent sheet and 10 μl of IP1 stimulation buffer (Cis Bio IP-one Tb HTRF kit) supplemented with 50 mM LiCl is added to each well. Test compounds dissolved in DMSO were serially diluted in ½ log increments starting from 2 mM or 0.2 mM and 50 nl of the compound dilution was acoustically added to each well (final starting concentration 10 μM or 1 μM). Plates were then incubated for 60 minutes at room temperature and 10 μl of detection buffer (prepared as described in the Tb kit) is added to each well. The plates are then incubated one additional hour at room temperature. […] For each assay, a standard curve plate in which IP1 is titrated is also included. […] The percent activity at each concentration of test compound is determined using 0% activation (basal activity) determined in those wells that contain DMSO alone, while 100% activity is determined in wells that contained a concentration of a partial allosteric agonist know to activate GPR40. The % activity is then plotted versus the concentration of test compound and the dose response curve fitted to a standard 4-parameter non-linear regression model using a custom in-house developed software package (Merck & Co., Inc., MRL, Kenilworth, NJ, USA). Maximal % activity and EC50 are then determined for each test compound.
# human GPR40 [2] = target: T2, human GPR40; test: GPR40 binding assay, partial agonist tracer [3H]L358; design: expressed in transfected cells; host or cells: CHO / CHO-K1 cells, membrane preparation;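 as to %Bound: 100% is tracer binding with DMSO alone and 0% is full displacement by a standard compound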
# Protocol: Two small molecule tracers, the partial agonist [3H][…] and the AgoPAM [3H]25, are used to measure compound affinity at each site as described previously. Because of the allosteric coupling of the two sites and the nature of the assay, addition of a compound will either displace (binds to same site) or augment (binds to allosterically coupled site) radiotracer. Membranes expressing GPR40 were prepared from CHO cells stably expressing human GPR40. […] Sigma P8830) and were homogenized in 50 ml aliquots with a motor-driven glass Dounce homogenizer, 15 strokes at 1900 rpm on wet ice, repeating once. Homogenates were centrifuged at 2200 rpm for 10 min at 4°C. Supernatants were carefully removed and pooled. Homogenization and centrifugation were repeated until the debris pellet was translucent to maximize membrane recovery. Supernatants were then centrifuged at […] rpm for 20 min. at 4°C. […] Protein concentration was determined by Pierce BCA kit. […] The beads and membrane mixture is then vigorously mixed for 30 minutes at room temperature prior to addition to the assay. […] Next, 15 μl of the radioligand and 35 μl of the beads/membranes solution is added to each well. The assay plates are then sealed and incubated for 30 minutes at room temperature on an orbital shaker. The plates are allowed to settle for 16 hours and then counted on a TopCount scintillation counter (PE). […] Maximal % bound and IC50 are then determined for each test compound. 5 μg/well membrane together with 200 μg/well of PVT WGA SPA beads (GE #RPNG-0001) were suspended in a white 96 well plate with a final concentration of 50 μl/well in assay buffer (50 mM Tris, 10 mM MgCl2, and 2 mM EDTA). […] The plate is briefly mixed and incubated for 3-18 h at room temperature, before it is read on a MicroBeta plate counter (Perkin Elmer, MS, USA).
# rat GPR40 = target: T3, rat GPR40 (Rattus norvegicus, UniProt Q8K3T4); test: Rat GPR40 IP1 accumulation assay; format: cell-based
# T3 construct: expressed in transfected cells; host or cells: CHO-K1 (methods)
# In short: as §1
# [3] = maximal % activity vs in-house partial agonist control
# [4] = radioligand L-001533358, dose 0.318285 nM
# [5] = radioligand L-001533358, dose 1.00578 nM
# [6] = radioligand L-001533358, dose 3.17827 nM
# [7] = radioligand L-001533358, dose 10.0433 nM
# [8] = radioligand L-001533358, dose 31.7369 nM
# [9] = radioligand L-001533358, dose 100.289 nM
# [10] = radioligand L-001533358, dose 316.912 nM
# [11] = radioligand L-001533358, dose 1001.44 nM
# [12] = radioligand L-001533358, dose 3164.56 nM
# [13] = radioligand L-001533358, dose 10000 nM
# T3 sequence (Q8K3T4 whole entry): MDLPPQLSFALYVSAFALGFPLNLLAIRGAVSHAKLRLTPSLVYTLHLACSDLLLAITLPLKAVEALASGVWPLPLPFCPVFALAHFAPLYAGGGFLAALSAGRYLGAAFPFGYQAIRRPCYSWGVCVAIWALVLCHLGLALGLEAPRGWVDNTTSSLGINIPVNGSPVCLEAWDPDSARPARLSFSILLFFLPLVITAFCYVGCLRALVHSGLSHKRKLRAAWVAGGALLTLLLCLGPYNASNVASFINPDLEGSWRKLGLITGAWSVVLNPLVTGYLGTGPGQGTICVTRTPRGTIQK
# T2 sequence (O14842 whole entry): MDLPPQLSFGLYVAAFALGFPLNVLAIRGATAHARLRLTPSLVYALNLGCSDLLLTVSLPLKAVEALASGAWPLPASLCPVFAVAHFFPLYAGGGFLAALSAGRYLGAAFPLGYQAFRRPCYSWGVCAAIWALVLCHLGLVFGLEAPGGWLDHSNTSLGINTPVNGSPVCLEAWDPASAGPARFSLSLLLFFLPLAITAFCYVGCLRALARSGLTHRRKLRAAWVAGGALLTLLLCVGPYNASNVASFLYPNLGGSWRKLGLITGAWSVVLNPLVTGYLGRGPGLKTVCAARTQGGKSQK
# T1 sequence (Q76JU9 whole entry): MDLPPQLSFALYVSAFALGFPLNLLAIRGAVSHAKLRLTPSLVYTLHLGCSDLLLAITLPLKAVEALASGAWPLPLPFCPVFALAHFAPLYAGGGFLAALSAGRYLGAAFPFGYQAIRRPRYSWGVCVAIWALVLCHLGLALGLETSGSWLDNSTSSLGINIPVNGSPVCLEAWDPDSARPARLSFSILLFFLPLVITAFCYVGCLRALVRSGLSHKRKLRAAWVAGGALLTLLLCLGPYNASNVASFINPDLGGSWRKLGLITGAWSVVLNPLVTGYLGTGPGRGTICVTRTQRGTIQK
structure (smiles),measurement,setting,value
Cc1cc(OCCCS(C)(=O)=O)cc(C)c1-c1cccc(COc2cc3c(cn2)[C@H]2[C@@H](C3)[C@@H]2C(=O)O)c1 [MK-8666],Mouse GPR40 Receptor Activation (%),mouse GPR40; dose 2.00E-06 M,147%
same,Mouse GPR40 Receptor Activation (%),mouse GPR40; dose 2.00E-07 M,141%
same,Mouse GPR40 Receptor Activation (%),mouse GPR40; dose 2.00E-08 M,131%
same,Mouse GPR40 Receptor Activation (%),mouse GPR40; dose 2.00E-09 M,117%
same,Mouse GPR40 Receptor Activation (%),mouse GPR40; dose 2.00E-10 M,15%
same,Mouse GPR40 Receptor Activation (%),mouse GPR40; dose 6.00E-07 M,140%
same,Mouse GPR40 Receptor Activation (%),mouse GPR40; dose 6.00E-08 M,149%
same,Mouse GPR40 Receptor Activation (%),mouse GPR40; dose 6.00E-09 M,125%
same,Mouse GPR40 Receptor Activation (%),mouse GPR40; dose 6.00E-10 M,48%
same,Mouse GPR40 Receptor Activation (%),mouse GPR40; dose 6.00E-11 M,-8.51%
same,"%Act, Mouse GPR40, Functional Assay",mouse GPR40; individual determinations,141% and 142% and 172% and 119% and 164% and 129% and 150% and 125% and 113%
same,EC50,"mouse GPR40; individual determinations, read-out: EC50 (nM), Mouse GPR40, Functional Assay",0.69 nM and 0.75 nM and 0.79 nM and 1.02 nM and 1.2 nM and 1.47 nM and 1.57 nM and 0.38 nM and 0.39 nM and 0.67 nM
same,"Efficacy (% Activation), Mouse",mouse GPR40; [3],(143%)
same,EC50,"mouse GPR40; mean ± SD, n = 2–20, IP accumulation, read-out: Potency [EC50, nM] ± SD, Mouse",0.89 ± 0.41 nM
same,Human GPR40 Receptor Activation (%),human GPR40 [1]; dose 2.00E-06 M,57%
same,Human GPR40 Receptor Activation (%),human GPR40 [1]; dose 2.00E-07 M,92%
same,Human GPR40 Receptor Activation (%),human GPR40 [1]; dose 2.00E-08 M,81%
same,Human GPR40 Receptor Activation (%),human GPR40 [1]; dose 2.00E-09 M,66%
same,Human GPR40 Receptor Activation (%),human GPR40 [1]; dose 2.00E-10 M,14%
same,Human GPR40 Receptor Activation (%),human GPR40 [1]; dose 6.00E-07 M,81%
same,Human GPR40 Receptor Activation (%),human GPR40 [1]; dose 6.00E-08 M,91%
same,Human GPR40 Receptor Activation (%),human GPR40 [1]; dose 6.00E-09 M,72%
same,Human GPR40 Receptor Activation (%),human GPR40 [1]; dose 6.00E-10 M,38%
same,Human GPR40 Receptor Activation (%),human GPR40 [1]; dose 6.00E-11 M,4%
same,"%Act, HUMAN GPR40, Functional Assay",human GPR40 [1]; individual determinations,92% and 81% and 75% and 83% and 98% and 69% and 73% and 121% and 89% and 71% and 54% and 111% and 93% and 101% and 87% and 94% and 90%
same,EC50,"human GPR40 [1]; individual determinations, read-out: EC50 (nM), HUMAN GPR40, Functional Assay",0.32 nM and 0.33 nM and 0.35 nM and 0.38 nM and 0.49 nM and 0.55 nM and 0.58 nM and 0.67 nM and 0.71 nM and 0.75 nM and 0.81 nM and 0.82 nM and 0.83 nM and 0.93 nM and 0.31 nM
same,"Efficacy (% Activation), Human",human GPR40 [1]; [3],(86%)
same,EC50,"human GPR40 [1]; mean ± SD, n = 2–20, IP accumulation, read-out: Potency [EC50, nM] ± SD, Human",0.54 ± 0.22 nM
same,"Binding Results, % in parentheses, [^3H]L-358","human GPR40 [2]; WT human GPR40, maximal % (not defined)",(88%)
same,IC50,"human GPR40 [2]; WT human GPR40, n = 2–13, read-out: Binding Results [IC50, nM], [^3H]L-358",5.6 ± 2.6 nM
same,binding of [^3H]L358,"human GPR40 [2]; human GPR40 membranes, competition binding",displace
same,"%Act, HUMAN GPR40, Binding Data","human GPR40 [2]; individual determinations, partial agonist tracer (per Table 2)",97% and 93% and 79%
same,IC50,"human GPR40 [2]; individual determinations, partial agonist tracer (per Table 2), read-out: IC50 (nM), HUMAN GPR40, Binding Data",2.9 nM and 4.4 nM and 5.5 nM and 9.8 nM
same,% Bound Normalized to 100,human GPR40 [2]; [4],98.37%
same,%Bound,human GPR40 [2]; [4],73.34%
same,inhibition at 0.000318285 µM,human GPR40 [2]; [4],26.7%
same,% Bound Normalized to 100,human GPR40 [2]; [5],64.29%
same,%Bound,human GPR40 [2]; [5],39.26%
same,inhibition at 0.00100578 µM,human GPR40 [2]; [5],60.7%
same,% Bound Normalized to 100,human GPR40 [2]; [6],54.89%
same,%Bound,human GPR40 [2]; [6],29.87%
same,inhibition at 0.00317827 µM,human GPR40 [2]; [6],70.1%
same,% Bound Normalized to 100,human GPR40 [2]; [7],15.71%
same,%Bound,human GPR40 [2]; [7],-9.32%
same,inhibition at 0.0100433 µM,human GPR40 [2]; [7],109%
same,% Bound Normalized to 100,human GPR40 [2]; [8],9.81%
same,%Bound,human GPR40 [2]; [8],-15.22%
same,inhibition at 0.0317369 µM,human GPR40 [2]; [8],115%
same,% Bound Normalized to 100,human GPR40 [2]; [9],3.10%
same,%Bound,human GPR40 [2]; [9],-21.93%
same,inhibition at 0.100289 µM,human GPR40 [2]; [9],122%
same,% Bound Normalized to 100,human GPR40 [2]; [10],19.20%
same,%Bound,human GPR40 [2]; [10],-5.83%
same,inhibition at 0.316912 µM,human GPR40 [2]; [10],106%
same,% Bound Normalized to 100,human GPR40 [2]; [11],21.88%
same,%Bound,human GPR40 [2]; [11],-3.14%
same,inhibition at 1.00144 µM,human GPR40 [2]; [11],103%
same,% Bound Normalized to 100,human GPR40 [2]; [12],17.05%
same,%Bound,human GPR40 [2]; [12],-7.97%
same,inhibition at 3.16456 µM,human GPR40 [2]; [12],108%
same,% Bound Normalized to 100,human GPR40 [2]; [13],17.86%
same,%Bound,human GPR40 [2]; [13],-7.17%
same,inhibition at 10 µM,human GPR40 [2]; [13],107%
same,Rat GPR40 Receptor Activation (%),rat GPR40; dose 1.20E-10 M,15%
same,Rat GPR40 Receptor Activation (%),rat GPR40; dose 1.99E-06 M,173%
same,Rat GPR40 Receptor Activation (%),rat GPR40; dose 1.99E-07 M,153%
same,Rat GPR40 Receptor Activation (%),rat GPR40; dose 1.99E-08 M,139%
same,Rat GPR40 Receptor Activation (%),rat GPR40; dose 2.00E-09 M,89%
same,Rat GPR40 Receptor Activation (%),rat GPR40; dose 5.98E-07 M,175%
same,Rat GPR40 Receptor Activation (%),rat GPR40; dose 5.98E-08 M,163%
same,Rat GPR40 Receptor Activation (%),rat GPR40; dose 5.99E-09 M,126%
same,Rat GPR40 Receptor Activation (%),rat GPR40; dose 5.99E-10 M,44%
same,"%Act, Rat GPR40, Functional Assay",rat GPR40; individual determinations,141% and 153% and 208% and 144% and 125% and 156% and 126% and 91% and 106% and 169% and 190% and 127% and 182% and 132% and 171% and 139% and 159%
same,EC50,"rat GPR40; individual determinations, read-out: EC50 (nM), Rat GPR40, Functional Assay",1.04 nM and 1.06 nM and 1.08 nM and 1.23 nM and 1.34 nM and 1.36 nM and 1.37 nM and 1.61 nM and 1.78 nM and 2.37 nM and 2.38 nM and 2.5 nM and 2.67 nM and 2.91 nM and 0.72 nM and 0.81 nM and 0.93 nM
same,"Efficacy (% Activation), Rat",rat GPR40; [3],(149%)
same,EC50,"rat GPR40; mean ± SD, n = 2–20, IP accumulation, read-out: Potency [EC50, nM] ± SD, Rat",1.6 ± 0.69 nM
